In this test the target is T1, 5-HT transporter (Rattus norvegicus, UniProt P31652).
T1 construct: synaptosomes of rat brain areas are freshly isolated; from tissue; host or cells: rat brain synaptosomes (P2 fraction) from marrow and pons
Kind of test: Inhibition of 5-HT uptake in rat brain synaptosomes. The format is biochemical. Particulars: read-out: Uptake 5-HT, % inhibition; Table III; rat, 1 μM.

T1 sequence (P31652 whole entry): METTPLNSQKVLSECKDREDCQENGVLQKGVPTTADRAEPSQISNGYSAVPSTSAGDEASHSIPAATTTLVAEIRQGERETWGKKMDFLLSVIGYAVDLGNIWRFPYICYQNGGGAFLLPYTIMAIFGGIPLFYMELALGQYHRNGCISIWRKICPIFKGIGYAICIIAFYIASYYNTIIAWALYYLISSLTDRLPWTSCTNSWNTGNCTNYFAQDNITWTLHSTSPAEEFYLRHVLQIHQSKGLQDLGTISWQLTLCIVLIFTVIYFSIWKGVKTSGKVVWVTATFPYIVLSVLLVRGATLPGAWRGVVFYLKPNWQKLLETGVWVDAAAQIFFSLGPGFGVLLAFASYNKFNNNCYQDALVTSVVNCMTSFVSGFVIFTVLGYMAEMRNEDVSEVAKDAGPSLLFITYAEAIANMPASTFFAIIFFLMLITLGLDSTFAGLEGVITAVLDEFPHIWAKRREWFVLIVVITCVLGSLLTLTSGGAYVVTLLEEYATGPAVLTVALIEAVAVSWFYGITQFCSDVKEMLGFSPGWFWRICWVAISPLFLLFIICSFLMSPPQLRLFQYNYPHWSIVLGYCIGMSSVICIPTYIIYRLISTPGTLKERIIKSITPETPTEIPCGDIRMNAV

With `CN1C(=O)C(Cc2ccccc2)NC12CCN(C(=O)c1ccc(C(F)(F)F)c(F)c1)CC2` (centres unmarked) [Example 191, 3-Benzyl-8-(3-fluoro-4-trifluoromethylbenzoyl)-1-methyl-1,4,8-triazaspiro[4,5]decan-2-one], the inhibition (as a rule, the share of the control response that was lost under treatment) at 1 µM came to 30%. Then `CC(C)C1NC2(CCN(C(=O)c3cccc(SC(F)F)c3)CC2)N(Cc2ccccc2)C1=O` (centres unmarked) [Example 192, 1-Benzyl-8-(3-difluoromethylsulfanylbenzoyl)-3-isopropyl-1,4,8-triazaspiro[4,5]decan-2-one], with 53%; and `COC(=O)c1ccc(CN2C(=O)C(C(C)C)NC23CCN(C(=O)c2cccnc2SC)CC3)cc1` (centres unmarked) [Example 194, Methyl 4-[3-isopropyl-8-(2-methylsulfanylpyridin-3-carbonyl)-2-oxo-1,4,8-triazaspiro[4,5]dec-1-ylmethyl]benzoate], with 32%.

On to `CCCCN1C(=O)C(Cc2ccccc2)NC12CCN(C(=O)c1ccccn1)CC2` (centres unmarked) [Example 202, 3-Benzyl-1-butyl-8-(pyridin-2-carbonyl)-1,4,8-triazaspiro[4,5]decan-2-one], for which the inhibition at 1 µM was determined as 56%. Turning to `CCCCN1C(=O)C(CCSC)NC12CCN(C(=O)C1CCCCC1)CC2` (centres unmarked) [Example 206, 1-Butyl-8-cyclohexanecarbonyl-3-(2-methylsulfanylethyl)-1,4,8-triazaspiro[4,5]decan-2-one], the inhibition at 1 µM came to 55%. In the case of `Cc1nnsc1C(=O)N1CCC2(CC1)NC(C(C)C)C(=O)N2Cc1ccccc1` (centres unmarked) [Example 216, 1-Benzyl-3-isopropyl-8-(4-methyl[1,2,3]thiadiazole-5-carbonyl)-1,4,8-triazaspiro[4,5]decan-2-one] it was 55%; in that of `CCCCN1C(=O)C(CCSC)NC12CCN(C(=O)c1cc(C)oc1C)CC2` (centres unmarked) [Example 219, 1-Butyl-8-(2,5-dimethylfuran-3-carbonyl)-3-(2-methylsulfanylethyl)-1,4,8-triazaspiro[4,5]decan-2-one], 30%; in that of `C#CCN1C(=O)C(CCSC)NC12CCN(C(=O)CCCOc1ccccc1)CC2` (centres unmarked) [Example 222, 3-(2-Methylsulfanylethyl)-8-(4-phenoxybutyryl)-1-prop-2-ynyl-1,4,8-triazaspiro[4,5]decan-2-one], 60%.

For `Cc1ccc(Cl)c(C(=O)N2CCC3(CC2)NC(Cc2ccccc2)C(=O)N3C)c1F` (centres unmarked) [Example 224, 3-Benzyl-8-(6-chloro-2-fluoro-3-methylbenzoyl)-1-methyl-1,4,8-triazaspiro[4,5]decan-2-one], the inhibition at 1 µM was 30%.

Take `CC(C)C1NC2(CCN(C(=O)c3ccco3)CC2)N(Cc2ccccc2)C1=O` (centres unmarked) [Example 228, 1-Benzyl-8-(furan-2-carbonyl)-3-isopropyl-1,4,8-triazaspiro[4,5]decan-2-one]: the inhibition at 1 µM is 32%. Turning to `CCCCN1C(=O)C(CCSC)NC12CCN(C(=O)c1cc(OC)cc(OC)c1)CC2` (centres unmarked) [Example 229, 1-Butyl-8-(3,5-dimethoxybenzoyl)-3-(2-methylsulfanylethyl)-1,4,8-triazaspiro[4,5]decan-2-one], the inhibition at 1 µM came out at 36%. In the case of `CSCCC1NC2(CCN(C(=O)c3c(F)ccc(C)c3F)CC2)N(C)C1=O` (centres unmarked) [Example 231, 8-(2,6-Difluoro-3-methylbenzoyl)-1-methyl-3-(2-methylsulfanylethyl)-1,4,8-triazaspiro[4,5]decan-2-one] it was 31%. Then `CC(C)=CCN1C(=O)C(C(C)C)NC12CCN(C(=O)c1c(-c3c(F)cccc3Cl)noc1C)CC2` (centres unmarked) [Example 233, 8-[3-(2-Chloro-6-fluorophenyl)-5-methylisoxazole-4-carbonyl]-3-isopropyl-1-(3-methylbut-2-enyl)-1,4,8-triazaspiro[4,5]decan-2-one], with 30%. In the case of `C#CCN1C(=O)C(CC(C)C)NC12CCN(C(=O)c1ccc(OC(F)(F)F)cc1)CC2` (centres unmarked) [Example 234, 3-Isobutyl-1-prop-2-ynyl-8-(4-trifluoromethoxybenzoyl)-1,4,8-triazaspiro[4,5]decan-2-one] it was 45%.

(Values after patent US7951815B2, “Substituted 1,4,8-triazaspiro [4,5]decan-2-one compounds” (Gruenenthal GmbH, priority 2004, dated 2011).)
